Measured values taken from patent US20110028509A1, “Sulfonamides” (MERCK SERONO SA, priority 2008, published 2011).

Columns and labels:
CXCR3 [1] = target: T1, CXCR3 (Homo sapiens, UniProt P49682); test: Chemotaxis assay ITAC (CXCL11), L1.2-CXCR3 cells; format: cell-based; design: expressed in transfected cells; conditions: 1 nM CXCL11 (I-TAC), 4 hours
T1 sequence (P49682 1-368): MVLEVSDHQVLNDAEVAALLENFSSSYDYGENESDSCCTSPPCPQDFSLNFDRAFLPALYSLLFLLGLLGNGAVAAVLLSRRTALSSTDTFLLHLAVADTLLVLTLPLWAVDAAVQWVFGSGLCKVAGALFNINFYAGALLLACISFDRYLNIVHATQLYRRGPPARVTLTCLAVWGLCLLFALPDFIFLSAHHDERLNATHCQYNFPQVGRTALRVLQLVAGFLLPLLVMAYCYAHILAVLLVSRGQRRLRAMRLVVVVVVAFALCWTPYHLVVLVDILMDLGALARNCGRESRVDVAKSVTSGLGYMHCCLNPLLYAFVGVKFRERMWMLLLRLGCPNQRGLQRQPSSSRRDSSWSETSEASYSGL
Experimental: Human CXCR3 cDNA was amplified by PCR from a human cells cDNA library (Clontech) and subcloned into pcDNA3.1 (Invitrogen). Murine pre-B L1.2 cells were transfected with hCXCR3-pcDNA3.1 and were grown at 37° C., 5% CO2 in RPMI 1640 medium (Invitrogen, USA) supplemented with 5% heat inactivated fetal calf serum (Cancerra, Australia), 2 mM glutamine (Invitrogen), 50 units ml−1 penicillin, 50 μml−1 streptomycin. Stable transfectant clonal populations were selected using 800 μg/ml geneticin.
L1.2-CXCR3 cells were grown for 24 hours at 0.5×10^6 cells/ml in chemotaxis medium containing 5 mM butyric acid (Sigma). Compounds were on one hand mixed with 1 nM of CXCL11 (I-TAC) in phenol-red free RPMI 1640 (invitrogen) supplemented with 5% fetal bovine serum in presence of 1% DMSO. The CXCL11/compounds mixture was then added to lower chambers of chemotaxis 96 well microplates (neuroprobe), and framed filters ([…] pore size) were put on top of the lower chambers. Compounds were on the other hand mixed with L1.2 CXCR3 cells and incubated in chemotaxis medium at 1.5×10^6 cells/ml in presence of 1% DMSO at 37° C., 5% CO2 for 30 minutes. Cells/compounds mixture was then added on top of the frame filters and migration was performed at 37° C., 5% CO2 for 4 hours. The number of migrated cells in the bottom chamber was determined using the CyQuant GR dye (Molecular Probe), according to the manufacturer.

CXCR3 [2] = target: T1, CXCR3; test: CXCR3 Ca2+ mobilization (FLIPR), stable hCXCR3-CHO cell line, I-TAC stimulated; format: cell-based; design: host or cells: CHO cells stably expressing hCXCR3; conditions: hCXCR3-CHO cells, I-TAC 100 nM stimulated Ca2+ response; read-out: Ca-ITAC
Experimental: Human chinese hamster ovary (CHO) cell line stably expressing hCXCR3 was purchased from Euroscreen (Belgium) and culture in HAM's F12 (Invitrogen) containing 10% heat inactivated fetal calf serum (Cancerra, Australia), 50 units ml−1 penicillin, 50 μml−1 streptomycin, (Invitrogen, USA) and 400 μg/ml geneticin (G418) (Calbiochem, San Diego), according to the manufacturer.
CXCR3Ca^2+ mobilization was measured using a stable hCXCR3—CHO cell line and a microtiter-plate based assay using FLIPR^TETRA™ (Molecular Devices). In more detail, cells were harvested and plated into black 384-well plates (Becton-Dickinson) at a density of 15 000 cells per well and grown in the incubator for 18 hours. On the next day the media was aspirated and replaced with the cell loading buffer (HBSS—(Invitrogen) based buffer containing calcium indicator and signal enhancer from a commercial Ca2+ assay kit (Becton Dickinson). The plates were incubated for 60 minutes in the incubator, the test compounds were added and the plates equilibrated for 20 minutes at room temperature.
Plates were placed into FLIPR and the CXCR3 agonist (I-TAC, 100 nM) stimulated fluorescence change was quantitated. The activity of CXCR3 antagonists was determined as percent of the CXCR3 ligand I-TAC in the absence of the test compounds (=100% activity).

IC50 (CXCR3 [1]) [nM] | IC50 (CXCR3 [2]) [nM] | SMILES
666 | 2000 | O=S(=O)(c1ccc(Cl)cc1)N(Cc1ccc(-c2nnn[nH]2)cc1)Cc1nccc2ccccc12 [Example 74, 4-chloro-N-(isoquinolin-1-ylmethyl)-N-[4-(2H-tetrazol-5yl)benzyl]benzene sulfonamide]
3800 | 10500 | CCOc1ccc(S(=O)(=O)N(Cc2ccc(C(=O)OC)c(OC)c2)Cc2ccccn2)cc1 [Example 188]
94 | 150 | NC(C(=O)Nc1ccc(CN(Cc2ccccn2)S(=O)(=O)c2ccc(Cl)cc2)cc1)c1ccccc1 (stereo not drawn) [Example 181]
1030 | 1450 | N#Cc1ccc(S(=O)(=O)N(Cc2ccc(C(=O)NCCc3ccc(S(N)(=O)=O)cc3)cc2)Cc2ccccn2)cc1 [Example 99]
2520 | 2000 | O=S(=O)(c1ccc(Cl)cc1)N(Cc1ccc(-c2nnn[nH]2)cc1)Cc1ccc2ccccc2n1 [Example 75]
760 | 17000 | CCOc1ccc(S(=O)(=O)N(Cc2ccc(C(=O)N[C@H](CO)Cc3ccccc3)cc2)Cc2ccccn2)cc1 [Example 87]
170 | 700 | N#Cc1ccc(S(=O)(=O)N(Cc2ccc(C(=O)NC3(c4ccc(Cl)cc4)CC3)cc2)Cc2ccccn2)cc1 [Example 126]
4310 | 3000 | N#Cc1ccc(S(=O)(=O)N(Cc2ccc(C(=O)NCc3ccncc3)cc2)Cc2ccccn2)cc1 [Example 137]
510 | 300 | CC(C)(C)OC(=O)N1C[C@@H]2[C@H](C1)[C@H]2NC(=O)c1ccc(CN(Cc2ccccc2)S(=O)(=O)c2ccc(Cl)cc2)cc1 [Example 106]
10 | 700 | CC(=O)OC(C(=O)Nc1ccc(CN(Cc2ccccn2)S(=O)(=O)c2ccc(Cl)cc2)cc1)c1ccccc1 (stereo not drawn) [Example 169]
10 | 300 | COC(=O)c1ccc(S(=O)(=O)N(Cc2ccc(C(=O)NC3(c4ccccc4)CC3)cc2)Cc2ccccn2)cc1 [Example 150]
2610 | 3000 | CC(=O)N1C[C@@H]2[C@H](C1)[C@H]2NC(=O)c1ccc(CN(Cc2ccccc2)S(=O)(=O)c2ccc(Cl)cc2)cc1 [Example 118]
930 | 8000 | N#Cc1ccc(S(=O)(=O)N(Cc2ccc(C(=O)NCc3cccnc3)cc2)Cc2ccccn2)cc1 [Example 136]
8860 | 350 | O=S(=O)(c1ccc(Cl)cc1)N(Cc1ccc(-c2nnn[nH]2)cc1)C1CCc2cc(Cl)ccc21 (stereo not drawn) [Example 179]
60 | 300 | N#Cc1ccc(S(=O)(=O)N(Cc2ccc(C(=O)NC3(c4cccc(Cl)c4)CC3)cc2)Cc2ccccn2)cc1 [Example 123]
1540 | 16000 | O=S(=O)(c1ccc(Cl)cc1)N(Cc1ccc(-c2nnn[nH]2)cc1)Cc1cccnc1 [Example 71, 4-chloro-N-(pyridin-3-ylmethyl)-N-[4-(2H-tetrazol-5yl)benzyl]benzene sulfonamide]
280 | 2000 | CCOc1ccc(S(=O)(=O)N(Cc2ccc(C(=O)NC3(c4ccccc4)CC3)c(OC)c2)Cc2ccccn2)cc1 [Example 189]
130 | 750 | N#Cc1ccc(S(=O)(=O)N(Cc2ccc(C(=O)NCC(O)c3ccccc3)cc2)Cc2cccnc2)cc1 (stereo not drawn) [Example 109]
1000 | 400 | Cn1c(CNC(=O)c2ccc(CN(Cc3ccccn3)S(=O)(=O)c3ccc(C#N)cc3)cc2)nc2ccccc21 [Example 143]
380 | 500 | CCOc1ccc(S(=O)(=O)N(Cc2ccc(C(=O)NC3(c4ccc(Cl)cc4)CC3)cc2)Cc2ccccn2)cc1 [Example 127]

IC50 (CXCR3 [1]) [nM] | IC50 (CXCR3 [2]) [nM] | SMILES
60 | 100 | N#Cc1ccc(S(=O)(=O)N(Cc2ccc(C(=O)NCc3ccccc3)cc2)Cc2ccccn2)cc1 [Example 138]
130 | 2000 | Cc1nc(CN(Cc2ccc(-c3nnn[nH]3)cc2)S(=O)(=O)c2ccc(Cl)cc2)cs1 [Example 68, 4-chloro-N-(2-methyl-thiazol-4-ylmethyl)-N-[4-(2H-tetrazol-5yl)benzyl]benzenesulfonamide]
240 | 600 | O=C(NC1(c2cccc(Cl)c2)CC1)c1ccc(CN(Cc2ccccn2)S(=O)(=O)c2ccc(Cl)cc2)cc1 [Example 122]
4800 | 1000 | N#Cc1ccc(S(=O)(=O)N(Cc2ccc([N+](=O)[O-])cc2)Cc2ccccn2)cc1 [Example 158]
3060 | 505 | N#Cc1ccc(S(=O)(=O)N(Cc2ccc(C(=O)O)c(F)c2)Cc2ccccn2)cc1 [Example 67, 4-{[[(4-cyanophenyl)sulfonyl](pyridin-2-ylmethyl)amino]methyl}-2-fluorobenzoic acid]
4470 | 200 | O=S(=O)(c1ccc(OC(F)(F)F)cc1)N(Cc1ccc(-c2nnn[nH]2)cc1)Cc1ccccn1 [Example 120]
82 | 400 | COC(=O)C(NC(=O)c1ccc(CN(Cc2ccccn2)S(=O)(=O)c2ccc(Cl)cc2)cc1)c1ccc(F)c(F)c1 (stereo not drawn) [Example 147]
750 | 900 | N#Cc1ccc(S(=O)(=O)N(Cc2ccc(C(=O)NCc3ccccn3)cc2)Cc2ccccn2)cc1 [Example 135]
400 | 2000 | COC(=O)[C@@H](Cc1ccccc1)NC(=O)c1ccc(CN(Cc2ccccn2)S(=O)(=O)c2ccc(Cl)cc2)cc1 [Example 145]
160 | 500 | CCOc1ccc(S(=O)(=O)N(Cc2ccc(C(=O)NC3(c4cccc(Cl)c4)CC3)cc2)Cc2ccccn2)cc1 [Example 124]
73 | 100 | O=C(NC(C(=O)O)c1ccc(F)c(F)c1)c1ccc(CN(Cc2ccccn2)S(=O)(=O)c2ccc(Cl)cc2)cc1 (stereo not drawn) [Example 149, (4-{[(4-Chloro-benzenesulfonyl)-pyridin-2-ylmethyl-amino]-methyl}-benzoylamino)-(3,4-difluoro-phenyl)-acetic acid]
350 | 400 | O=C(NC1(c2ccc(Cl)cc2)CC1)c1ccc(CN(Cc2ccccn2)S(=O)(=O)c2ccc(Cl)cc2)cc1 [Example 125]
630 | 200 | N#Cc1ccc(S(=O)(=O)N(Cc2ccc(C(=O)N[C@@H](Cc3ccccc3)C(N)=O)cc2)Cc2ccccn2)cc1 [Example 100]
54 | 800 | COC(=O)[C@@H](NC(=O)c1ccc(CN(Cc2ccccn2)S(=O)(=O)c2ccc(Cl)cc2)cc1)c1ccccc1 [Example 342]
270 | 900 | COC(=O)c1ccc(CNC(=O)c2ccc(CN(Cc3ccccn3)S(=O)(=O)c3ccc(Cl)cc3)cc2)cc1 [Example 132]
3890 | 3000 | O=S(=O)(c1ccc(Cl)cc1)N(Cc1ccccc1)Cc1ccc(-c2nnn[nH]2)cc1 [Example 121]
70 | 20 | CC(C)(C)OC(=O)N1C[C@@H]2[C@H](C1)[C@H]2NC(=O)c1ccc(CN(Cc2ccccn2)S(=O)(=O)c2ccc(Cl)cc2)cc1 [Example 105]
390 | 750 | N#Cc1ccc(S(=O)(=O)N(Cc2ccc(C(=O)NCCc3cccc(Cl)c3)cc2)Cc2cccnc2)cc1 [Example 110]
3240 | 12000 | Cc1nc(CN(Cc2ccc(-c3nnn[nH]3)cc2)S(=O)(=O)c2ccc(Cl)cc2)no1 [Example 73, 4-chloro-N-(5-methyl-1,2,4-oxadiazol-3-ylmethyl)-N-[4-(2H-tetrazol-5yl)benzyl]benzene sulfonamide]
